Experimental data: PMC10246557, “Kinetic and inhibition studies on human Jumonji-C (JmjC) domain-containing protein 5” (RSC Chemical Biology, 2023)
Where “and” joins values, the source holds several entries; their conditions need not be identical. Equal values may be shown once. Read-outs that look alike come from different tables or passages of the source.

Tests used:
human KDM4E [1] = molecular target: T1, human KDM4E (Homo sapiens, UniProt B2RXH2); test: KDM4E SPE-MS inhibition assay; assay type: biochemical; conditions: KDM4E 0.15 μM, peptide 10.0 μM, LAA 100 μM, FAS 10 μM, 2OG 10 μM
T1 sequence (B2RXH2 1-506): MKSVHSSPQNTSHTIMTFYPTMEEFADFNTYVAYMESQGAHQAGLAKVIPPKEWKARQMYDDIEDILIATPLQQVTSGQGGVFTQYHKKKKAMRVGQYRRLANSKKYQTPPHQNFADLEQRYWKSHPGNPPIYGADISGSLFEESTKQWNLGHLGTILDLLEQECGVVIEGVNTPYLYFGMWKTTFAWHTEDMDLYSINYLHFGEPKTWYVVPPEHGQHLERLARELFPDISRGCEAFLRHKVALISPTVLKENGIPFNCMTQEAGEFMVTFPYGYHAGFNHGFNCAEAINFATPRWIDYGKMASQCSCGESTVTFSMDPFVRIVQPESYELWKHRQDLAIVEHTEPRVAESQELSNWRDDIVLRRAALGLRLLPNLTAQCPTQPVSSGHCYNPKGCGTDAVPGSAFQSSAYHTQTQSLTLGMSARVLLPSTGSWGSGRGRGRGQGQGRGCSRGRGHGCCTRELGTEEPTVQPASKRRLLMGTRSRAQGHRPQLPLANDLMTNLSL
Procedure: KDM4E turnover and inhibition assays were performed as reported using recombinant human KDM4E and a histone 3 K9(me3) derivative (i.e. […](me3)STGGIA)[41] as substrate.[95] […]

human JMJD5 [2] = molecular target: T2, human JMJD5 (Homo sapiens, UniProt Q8N371); test: SPE-MS JMJD5 inhibition assay; assay type: biochemical; conditions: for IC50 / IC50 JMJD5: 2OG 2.0 μM, Fe(II) 2.0 μM, LAA 100 μM, RPS6_128–148 2.0 μM
T2 construct: made in house; host or cells: Escherichia coli BL21(DE3)
T2 sequence (Q8N371 whole entry): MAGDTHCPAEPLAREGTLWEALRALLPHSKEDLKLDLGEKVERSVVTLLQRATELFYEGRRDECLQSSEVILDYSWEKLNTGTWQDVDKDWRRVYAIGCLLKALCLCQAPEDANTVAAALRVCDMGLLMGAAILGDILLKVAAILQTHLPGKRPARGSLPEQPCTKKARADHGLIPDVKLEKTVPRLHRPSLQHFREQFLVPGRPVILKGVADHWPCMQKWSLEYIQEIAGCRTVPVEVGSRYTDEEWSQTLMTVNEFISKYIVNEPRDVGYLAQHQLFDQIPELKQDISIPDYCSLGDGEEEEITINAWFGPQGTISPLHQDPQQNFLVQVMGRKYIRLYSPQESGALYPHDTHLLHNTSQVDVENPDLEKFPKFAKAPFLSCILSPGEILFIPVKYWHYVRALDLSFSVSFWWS
Procedure: Solutions of the small-molecules (100% DMSO) were dry dispensed across 384 well polypropylene V-bottom assay microplates (Greiner) in an approximately three-fold and 11-point dilution series (100 μM inhibitor top concentration; the final DMSO assay concentration was kept constant at 0.5%v/v) using an ECHO 550 acoustic dispenser (Labcyte). […] Each reaction was performed in technical duplicates in adjacent wells of the assay plates; additionally, assays were performed in two independent duplicates on different days using different inhibitor solutions.
The Enzyme Mixture (25 μL per well), containing 0.3 μM His6-thioredoxin-tagged JMJD5 in buffer (50 mM MOPS, pH 7.5), was dispensed across the inhibitor-containing 384-well plates with a multidrop dispenser (ThermoFischer Scientific) at 20 °C under an ambient atmosphere. The plates were subsequently centrifuged (1000 rpm, 5 s) and incubated for 15 min at 20 °C. […] The plates were centrifuged (1000 rpm, 5 s) and, after incubating for 30 min, the enzyme reaction was stopped by the addition of 10%v/v aqueous formic acid (5 μL per well). The plates were then centrifuged (1000 rpm, 30 s) and analyzed by MS.
Z′-Factors were calculated according to the cited literature using Microsoft Excel.[61]

human JMJD5 [3] = molecular target: T2, human JMJD5; test: SPE-MS JMJD5 turnover and kinetic assay (RPS6_128–148 hydroxylation); assay type: biochemical; conditions: for JMJD5 (%): RPS6_128–148 hydroxylation with the compound as cosubstrate: absence of 2OG, JMJD5 0.15 μM, 2OG derivative 400 μM, Fe(II) 20 μM, RPS6_128–148 2.0 μM
Procedure: JMJD5 turnover assays for time course and kinetic experiments were performed in 96-well polypropylene assay plates (Greiner) with either […] total reaction volume using the concentrations given in the manuscript or ESI, ^† and JMJD5-catalysed substrate hydroxylation was directly monitored using SPE-MS. […] Assay samples were aspirated under vacuum for 0.6 s and loaded onto a C4 solid phase extraction (SPE) cartridge. After loading, the C4 SPE cartridge was washed with 0.1%v/v aqueous formic acid to remove non-volatile buffer salts (5.5 s, 1.5 mL min^−1). The peptide was eluted from the SPE cartridge with 0.1%v/v aqueous formic acid in 80/20v/v acetonitrile/water into the mass spectrometer (5.5 s, 1.5 mL min^−1) and the SPE cartridge re-equilibrated with 0.1%v/v aqueous formic acid (0.5 s, 1.5 mL min^−1). The mass spectrometer was operated using the MassHunter Workstation B.08.00 software (Agilent), the mass spectrometer parameters were: capillary voltage (4000 V), nozzle voltage (1000 V), fragmentor voltage (365 V), gas temperature (280 °C), gas flow (13 L min^−1), sheath gas temperature (350 °C), sheath gas flow (12 L min^−1). […] Data were exported into Microsoft Excel and used to calculate the % conversion of the hydroxylation reaction using the equation: % conversion = 100 × (integral product peptide)/(integral substrate peptide + integral product peptide).
parameters (continues on the following two pages). Maximum velocities (vapp ) and Michaelis constants (Kapp)
of JMJD5 were determined in independent triplicates, monitoring the JMJD5-catalyzed hydroxylation of the
SPE-MS, as described (Experimental Section).
20 °C). Measurement times were normalized to the first sample injection analyzed after the addition of JMJD5 to
shown as the mean of three independent runs (n = 3; mean ± standard deviation, SD).
hexahydrate (20 μM, (NH4)2Fe(SO4)2·6H2O); and (b) hydroxylation rates used to determine kinetic parameters of
(1 picture or pasted object on this page, not shown here)
Maximum velocities (vapp ) and
Michaelis constants (Kapp) of JMJD5 were determined in independent triplicates for (1R)-3-
(carboxycarbonyl)cyclopentane-1-carboxylic acid (14), monitoring the JMJD5-catalyzed hydroxylation of the
as described (Experimental Section).
pH 7.5, 20 °C). Measurement times were normalized to the first sample injection analyzed after the addition of
(§1) Data are shown as the mean of three independent runs (n = 3; mean ± SD).
to determine kinetic parameters of JMJD5 for 14.

human AspH = conditions: absence of 2OG; AspH 0.1 μM, 2OG derivative 330 μM, Fe(II) 50 μM, hFX-CP101–119 2.0 μM; cited from earlier work
human FIH = conditions: absence of 2OG; FIH 0.15 μM, 2OG derivative 330 μM, Fe(II) 50 μM, HIF-1α788–822 5.0 μM; cited from earlier work
human KDM4E [4] = molecular target: T1, human KDM4E; test: KDM4E SPE-MS turnover and kinetic assay (H3 K9(me3) peptide demethylation); assay type: biochemical; conditions: absence of 2OG; KDM4E 0.15 μM, 2OG derivative 330 μM, Fe(II) 50 μM, ARTAQTARK(me3)STGGIA 10.0 μM
Procedure: KDM4E turnover and inhibition assays were performed as reported using recombinant human KDM4E and a histone 3 K9(me3) derivative (i.e. […](me3)STGGIA)[41] as substrate.[95]
Supplementary Figure S3. Rates of KDM4E-catalyzed Nε-trimethyl lysine demethylations of a histone 3- […]
Maximum velocities (vapp ) and Michaelis […]
catalyzed Nε-trimethyl lysine demethylation of the histone 3 K9(me3)-derived peptide […]
(me3)STGGIA2 by SPE-MS as described;3 note that mono-, di-, and tri-demethylated product […]
buffer (50 mM MES, pH 7.0, 20 °C). Measurement times were normalized to the first sample injection analyzed […]
as §1
(a) Time course of the KDM4E-catalyzed Nε-trimethyl lysine demethylation reaction of the […]

[5] = JMJD5 0.15 μM, read-out: IC50 JMJD5

Compound	IC50 (human JMJD5 [2]; [5]) [µM]	JMJD5 (%): RPS6_128–148 hydroxylation with the compound as cosubstrate (human JMJD5 [3])	AspH (%): substrate hydroxylation with the compound as cosubstrate (human AspH)	FIH (%): substrate hydroxylation with the compound as cosubstrate (human FIH)	KDM4E (%): substrate demethylation with the compound as cosubstrate (human KDM4E [4])	other results
3-(4-methoxybenzyl)-2OG [2OG derivative 6]	> 50	~ 10%	< 1%	< 1%	~ 5%	IC50 (human KDM4E [1]): > 50 µM
3-(9,9-dimethyl-9H-fluoren-2-yl)methyl-2OG [2OG derivative 7]	> 50	< 1%	< 1%	< 1%	< 1%	
3-ethyl-2OG [2OG derivative 2]	> 20	< 1%	< 1%	~ 2%	< 1%	IC50 (human KDM4E [1]): > 50 µM
4-propyl-2OG [2OG derivative 11]	> 50	~ 10%	< 1%	~ 5%	< 1%	IC50 (human KDM4E [1]): > 50 µM
CC(CC(=O)C(=O)O)C(=O)O (stereo not shown) [C00017]		∼10%	∼10%	∼45%	<1%	
O=C(O)C(=O)c1ccc(C(=O)O)cc1 [C00018]		<1%	∼80%	<1%	<1%	
O=C(O)CNC(=O)C(=O)O [C00025]	0.15 ± 0.02					
O=C(O)c1ccc(O)c2ncccc12 [C00029]						IC50 (human JMJD5 [2]; IC50 JMJD5, JMJD5 0.15 μM): 2.6 ± 0.1 µM
O=C(O)CNC(=O)c1c(O)c2ccccc2n(OCC2CC2)c1=O [C00037, reference compound]						IC50 (human JMJD5 [2]; IC50 JMJD5, JMJD5 0.15 μM): 37.2 ± 6 µM
CC1(C)c2ccccc2-c2ccc(CC(CC(=O)O)C(=O)C(=O)O)cc21 (stereo not shown) [Entry 7]		< 1%	< 1%	< 1%	< 1%	IC50 (human KDM4E [1]): 6 to 7 µM and ~6.1 µM
CC(CC(=O)C(=O)O)C(=O)O (stereo not shown) [Entry 8]		< 1%	< 1%	< 1%	< 1%	IC50 (human KDM4E [1]): 6 to 7 µM and ~6.6 µM; JMJD5-catalyzed RPS6_128–148 hydroxylation, time course (human JMJD5 [3]; after 50 min, 10 μM cosubstrate, 0.15 μM JMJD5, 10 μM Fe(II), 2.0 μM RPS6_128–148): ~30%
O=C(O)C(=O)c1ccccc1C(=O)O [Entry 26]		< 1%	< 1%	< 1%	< 1%	
O=C(O)C(=O)c1cscc1C(=O)O [Entry 34]		< 1%	< 1%	< 1%	< 1%	
O=C(O)CCNc1cc(N2CCc3ccccc3CC2)nc(-c2ccccn2)n1 [GSK-J1, reference compound]	~4.4					
CN(C)CCCNC(=O)c1ccc(-c2cc(O)c3ncccc3c2)cc1 [ML324, reference compound]						Hill coefficient of the JMJD5 inhibition curve (human JMJD5 [2]): ≥ 2
O=C(O)C(=O)N[C@H](Cc1ccccc1)C(=O)O [NOFD, N-Oxalyl-D-phenylalanine, reference compound]						IC50 JMJD5 (human JMJD5 [2]; JMJD5 0.15 μM): does not inhibit JMJD5 in the concentration range tested
O=C(O)CNC(=O)C(=O)O [NOG, N-oxalylglycine, reference compound]	~0.2					
CN(C)NC(=O)CCC(=O)O [daminozide, reference compound]						IC50 (human JMJD5 [2]; IC50 JMJD5, JMJD5 0.15 μM): > 100 µM
O=c1c2ccccc2[se]n1-c1ccccc1 [ebselen, reference compound]	~0.7					Hill coefficient of the JMJD5 inhibition curve (human JMJD5 [2]): ≥ 2
Cc1nc(C(=O)NCC(=O)O)c(O)c2ccc(Oc3ccccc3)cc12 [roxadustat, reference compound]						IC50 JMJD5 (human JMJD5 [2]; JMJD5 0.15 μM): does not inhibit JMJD5 at substantial levels

Now from value to compound, other results behind:

IC50 (human JMJD5 [2]; [5]) [µM]	Compound	JMJD5 (%): RPS6_128–148 hydroxylation with the compound as cosubstrate (human JMJD5 [3])	AspH (%): substrate hydroxylation with the compound as cosubstrate (human AspH)	FIH (%): substrate hydroxylation with the compound as cosubstrate (human FIH)	KDM4E (%): substrate demethylation with the compound as cosubstrate (human KDM4E [4])	other results
> 100	O=C(O)C(=O)N[C@H](Cc1ccccc1)C(=O)O [C00030]					
0.69 ± 0.15	O=c1c2ccccc2[se]n1-c1ccccc1 [C00031]					
3 ± 0.5	CN(C)CCCNC(=O)c1ccc(-c2cc(O)c3ncccc3c2)cc1 [C00034]					
17.8 ± 5.6	O=C(O)CNC(=O)c1c(O)c2ccccc2n(Cc2ccccc2)c1=O [C00035, reference compound]					
4.4 ± 0.5	O=C(O)CCNc1cc(N2CCc3ccccc3CC2)nc(-c2ccccn2)n1 [C00036]					
29.5 ± 1.6	O=c1c(-n2ccnn2)c[nH]n1-c1cc(N2CCOCC2)ncn1 [C00039, reference compound]					
